Source: ChEMBL document CHEMBL4831528, “Discovery of Novel Pterostilbene-Based Derivatives as Potent and Orally Active NLRP3 Inflammasome Inhibitors with Inflammatory Activity for Colitis” (J Med Chem, 2021)
Activity calls are given as the source filed them. No cut-off for these calls is given here.

Tests used:
[1] = Toxicity in C57BL/6 mouse assessed as effect on lung at 20 to 40 mg/kg, ig administered for 28 days; type: organism-based; details: in vivo, po, 672 h, dose 20-40 mg/kg, time 28 day
[2] = target: T1, Interferon-inducible protein AIM2 (Mus musculus) (UniProt Q91VJ1); assay: Inhibition of AIM2 inflammasome activation in LPS-stimulated mouse bone marrow-derived macrophages assessed as reduction in IL-1beta secretion at 2 uM preincubated for 30 mins followed by poly-(dA:dT) addition and measured after 4 hrs by ELISA; type: tissue-based; details: Macrophage, time 4.5 hrs
T1 sequence (whole entry): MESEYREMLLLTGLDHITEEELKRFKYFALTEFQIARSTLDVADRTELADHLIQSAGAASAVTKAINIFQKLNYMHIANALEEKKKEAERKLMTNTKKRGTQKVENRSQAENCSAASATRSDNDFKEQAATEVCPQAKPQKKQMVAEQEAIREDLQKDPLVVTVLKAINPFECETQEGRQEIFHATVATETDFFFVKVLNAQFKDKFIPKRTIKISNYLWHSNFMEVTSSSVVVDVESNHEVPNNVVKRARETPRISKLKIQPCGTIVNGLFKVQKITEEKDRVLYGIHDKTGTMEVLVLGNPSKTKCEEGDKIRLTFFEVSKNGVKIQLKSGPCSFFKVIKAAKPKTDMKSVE

[3] = Toxicity in C57BL/6 mouse assessed as weight loss at 20 to 40 mg/kg, ig administered for 28 days; type: organism-based; details: in vivo, po, 672 h, dose 20-40 mg/kg, time 28 day
BMDM [4] = assay: Effect on pro-caspase1(p45) expression in LPS-stimulated mouse bone marrow-derived macrophages at 0.5 to 2 uM preincubated for 30 mins followed by nigericin addition and measured after 30 mins by Western blot analysis; type: functional, tissue-based; details: dose 0.5-2 µM, time 60.0 min
[5] = Half life in human liver microsomes preincubated for 5 mins followed by NADPH addition and measured after 5 to 60 mins by LC-MS/MS analysis; type: ADME, Microsome
[6] = target: NACHT, LRR and PYD domains-containing protein 3 (Mus musculus) (UniProt Q8R4B8); assay: Inhibition of NLRP3 inflammasome activation in LPS-stimulated mouse bone marrow-derived macrophages assessed as attenuation of ASC monomer at 1 to 4 uM preincubated for 30 mins followed by nigericin addition and measured after 0.5 hrs by Western blot analysis; type: tissue-based; details: Macrophage, dose 1-4 µM, time 60.0 min
Target sequence in this assay (Q8R4B8 whole entry, the tested form may be a part): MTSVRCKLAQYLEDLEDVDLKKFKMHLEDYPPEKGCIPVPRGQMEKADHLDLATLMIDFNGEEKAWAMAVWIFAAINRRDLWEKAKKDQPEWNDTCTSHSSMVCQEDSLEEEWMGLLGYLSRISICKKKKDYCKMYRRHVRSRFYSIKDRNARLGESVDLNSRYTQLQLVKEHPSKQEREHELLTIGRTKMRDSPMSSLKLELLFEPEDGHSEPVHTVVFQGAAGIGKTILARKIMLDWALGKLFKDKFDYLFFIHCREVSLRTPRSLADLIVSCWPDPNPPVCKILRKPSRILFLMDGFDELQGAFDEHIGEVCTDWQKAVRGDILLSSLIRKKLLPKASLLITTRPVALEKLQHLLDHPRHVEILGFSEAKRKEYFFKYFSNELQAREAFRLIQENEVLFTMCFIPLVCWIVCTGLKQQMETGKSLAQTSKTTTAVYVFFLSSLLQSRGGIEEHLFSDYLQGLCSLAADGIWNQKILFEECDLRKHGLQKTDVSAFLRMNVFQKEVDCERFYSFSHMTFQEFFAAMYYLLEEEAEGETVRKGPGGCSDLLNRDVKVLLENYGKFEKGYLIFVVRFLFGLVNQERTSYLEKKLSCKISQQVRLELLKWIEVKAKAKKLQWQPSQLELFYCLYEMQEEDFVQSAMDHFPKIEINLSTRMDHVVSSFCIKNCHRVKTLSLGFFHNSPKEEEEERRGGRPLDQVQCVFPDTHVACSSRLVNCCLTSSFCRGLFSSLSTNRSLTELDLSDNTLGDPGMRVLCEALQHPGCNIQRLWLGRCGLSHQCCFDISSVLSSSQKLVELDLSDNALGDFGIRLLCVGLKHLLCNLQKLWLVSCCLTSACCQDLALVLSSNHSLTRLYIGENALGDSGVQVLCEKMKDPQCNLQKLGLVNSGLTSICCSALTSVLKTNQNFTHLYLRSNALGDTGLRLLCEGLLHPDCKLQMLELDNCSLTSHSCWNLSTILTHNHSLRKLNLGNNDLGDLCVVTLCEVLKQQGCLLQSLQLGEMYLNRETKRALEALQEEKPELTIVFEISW

[7] = Half life in mouse at 20 mg/kg, po measured up to 24 hrs by LC-MS/MS analysis; type: ADME, organism-based; details: in vivo
[8] = Cmax in mouse at 2 mg/kg, iv measured after 0.08 to 24 hrs by LC-MS/MS analysis; type: ADME, organism-based; set-up: route intravenous, time 0.08-24 hrs, dose 2 mg/kg; details: in vivo
Mus musculus [9] = assay: Protection against DSS-induced acute ulcerative colitis in C57BL/6 mouse assessed as reduction in pathological index score at 10 to 20 mg/kg, ig administered for 7 days by Hematoxylin and eosin staining based optical microscopy; type: functional, organism-based; details: dose 10-20 mg/kg, time 7.0 day
[10] = Toxicity in C57BL/6 mouse assessed as effect on heart at 20 to 40 mg/kg, ig administered for 28 days; type: organism-based; details: in vivo, po, 672 h, dose 20-40 mg/kg, time 28 day
[11] = target: T2, NACHT, LRR and PYD domains-containing protein 3 (Homo sapiens, UniProt Q96P20); assay: Binding affinity to His-GFP fused tagged NLRP3 (unknown origin) expressed in HEK293T assessed as thermal stabilization at 10 uM incubated for 30 mins by cellular thermal shift assay; type: cell-based
Mus musculus [12] = assay: Downregulation of phosphorylated p65 expression in colon of C57BL/6 mouse model of DSS-induced ulcerative colitis at 10 to 20 mg/kg, ig administered for 7 days by Western blot analysis; type: functional, organism-based; details: dose 10-20 mg/kg, time 7.0 day
[13] = target: NACHT, LRR and PYD domains-containing protein 3 (Mus musculus) (UniProt Q8R4B8); assay: Inhibition of NLRP3 inflammasome activation in LPS-stimulated mouse J774A.1 cells assessed as inhibition of cell pyrolysis at 10 uM incubated for 1 hr followed by ATP addition and measured after 30 mins by Hoechst 33342/propidium iodide staining based high content screening method relative to control; details: J774.A1, time 1.5 hrs
Target sequence in this assay (Q8R4B8 whole entry, the tested form may be a part): as above

[14] = Intrinsic clearance in mouse liver microsomes preincubated for 5 mins followed by NADPH addition and measured after 5 to 60 mins by LC-MS/MS analysis; type: ADME, Microsome; details: time 5-60 min, read-out: CLH
Mus musculus [15] = assay: Downregulation of IL6 expression in colon of C57BL/6 mouse model of DSS-induced ulcerative colitis at 10 to 20 mg/kg, ig administered for 7 days by ELISA; type: functional, organism-based; details: dose 10-20 mg/kg, time 7.0 day
Mus musculus [16] = assay: In vivo inhibition of NLRP3 inflammasome activation in C57BL/6 mouse assessed as reduction in MPO activity at 10 to 20 mg/kg, ig administered for 7 days by ELISA; type: functional, organism-based; details: dose 10-20 mg/kg, time 7.0 day
BMDM [17] = assay: Effect on pro-IL1beta expression in LPS-stimulated mouse bone marrow-derived macrophages at 0.5 to 2 uM preincubated for 30 mins followed by nigericin addition and measured after 30 mins by Western blot analysis; type: functional, tissue-based; details: dose 0.5-2 µM, time 60.0 min
[18] = Inhibition of ROS production in LPS-stimulated mouse bone marrow-derived macrophages at 1 to 4 uM preincubated for 30 mins followed by nigericin addition and measured after 0.5 hrs by Western blot analysis; details: Macrophage, dose 1-4 µM, time 60.0 min
[19] = target: NACHT, LRR and PYD domains-containing protein 3 (Mus musculus) (UniProt Q8R4B8); assay: Inhibition of NLRP3 inflammasome activation in LPS-stimulated mouse bone marrow-derived macrophages assessed as reduction in pro caspase1 p20 in cell lysate at 2 uM preincubated for 30 mins followed by ATP addition and measured after 0.5 hrs by Western blot analysis; type: subcellular; details: Macrophage, time 60.0 min
Target sequence in this assay (Q8R4B8 whole entry, the tested form may be a part): as above

[20] = target: NACHT, LRR and PYD domains-containing protein 3 (Mus musculus) (UniProt Q8R4B8); assay: Inhibition of NLRP3 inflammasome activation in LPS-stimulated mouse bone marrow-derived macrophages assessed as reduction in ASC polymerization at 1 to 4 uM preincubated for 30 mins followed by nigericin addition and measured after 0.5 hrs by DAPI staining based confocal scanning microscopy; details: Macrophage, dose 1-4 µM
Target sequence in this assay (Q8R4B8 whole entry, looked up, the tested form may be a part): as the sequence (Q8R4B8 whole entry, the tested form may be a part) above

[21] = target: T2, NACHT, LRR and PYD domains-containing protein 3; assay: Inhibition of recombinant human NLRP3 preincubated for 15 mins followed by ATP addition by ADP-Glo kinase assay
Mus musculus [22] = assay: Downregulation of phosphorylated STAT3 expression in colon of C57BL/6 mouse model of DSS-induced ulcerative colitis at 10 to 20 mg/kg, ig administered for 7 days by Western blot analysis; type: functional, organism-based; details: dose 10-20 mg/kg, time 7.0 day
[23] = target: NACHT, LRR and PYD domains-containing protein 3 (Mus musculus) (UniProt Q8R4B8); assay: Inhibition of NLRP3 inflammasome activation in LPS-stimulated mouse bone marrow-derived macrophages assessed as reduction in IL-1beta secretion at 1 to 4 uM preincubated for 30 mins followed by nigericin addition and measured after 0.5 hrs by Western blot analysis; type: tissue-based; details: Macrophage, dose 1-4 µM
Target sequence in this assay (Q8R4B8 whole entry, the tested form may be a part): as above

T2 sequence (Q96P20 whole entry, the tested form may be a part): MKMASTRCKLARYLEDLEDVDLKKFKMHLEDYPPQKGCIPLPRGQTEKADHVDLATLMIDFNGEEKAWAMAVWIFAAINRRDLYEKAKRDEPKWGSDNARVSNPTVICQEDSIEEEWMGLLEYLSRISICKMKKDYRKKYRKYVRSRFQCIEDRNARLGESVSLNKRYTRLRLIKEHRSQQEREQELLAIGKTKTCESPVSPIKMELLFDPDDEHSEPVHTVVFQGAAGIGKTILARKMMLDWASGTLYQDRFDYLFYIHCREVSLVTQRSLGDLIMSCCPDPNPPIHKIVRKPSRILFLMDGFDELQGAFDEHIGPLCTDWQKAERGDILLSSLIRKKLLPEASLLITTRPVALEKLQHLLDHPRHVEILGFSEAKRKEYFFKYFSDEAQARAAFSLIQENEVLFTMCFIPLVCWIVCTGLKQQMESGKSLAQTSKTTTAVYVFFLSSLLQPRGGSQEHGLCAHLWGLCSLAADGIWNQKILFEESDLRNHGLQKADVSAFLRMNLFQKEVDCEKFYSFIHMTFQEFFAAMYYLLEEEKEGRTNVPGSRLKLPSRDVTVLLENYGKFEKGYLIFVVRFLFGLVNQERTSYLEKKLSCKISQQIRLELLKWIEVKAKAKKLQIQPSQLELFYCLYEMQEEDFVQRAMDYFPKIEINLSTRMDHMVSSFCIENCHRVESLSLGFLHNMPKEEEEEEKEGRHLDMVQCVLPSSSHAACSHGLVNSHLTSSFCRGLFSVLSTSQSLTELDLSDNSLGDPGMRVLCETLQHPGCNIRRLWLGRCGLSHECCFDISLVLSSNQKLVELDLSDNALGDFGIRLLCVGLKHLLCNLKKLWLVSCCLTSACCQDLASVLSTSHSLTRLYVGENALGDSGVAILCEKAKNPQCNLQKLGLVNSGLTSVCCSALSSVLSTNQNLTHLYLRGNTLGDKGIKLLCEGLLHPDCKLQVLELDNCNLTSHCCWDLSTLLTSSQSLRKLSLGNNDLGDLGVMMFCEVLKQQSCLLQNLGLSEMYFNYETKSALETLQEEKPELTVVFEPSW

COc1cc(/C=C/c2ccc(NC(=O)C3CC3)cc2)c(/C=C/[N+](=O)[O-])c(OC)c1
Activity [1]: Non-Toxic | inhibition [2]: inactive | Activity [3]: Non-Toxic | Activity (BMDM [4]): inactive | half-life [5]: 1.13 h | inhibition [6]: Active | half-life [7]: 4.93 h | Cmax [8]: 355 ng/mL | Activity (Mus musculus [9]): Active | Activity [10]: Non-Toxic | Activity [11]: Active | Activity (Mus musculus [12]): Active | inhibition [13]: 73.1% | microsomal CLint [14]: 32 µL/min/mg | Activity (Mus musculus [15]): Active | inhibition (Mus musculus [16]): Active | Activity (BMDM [17]): inactive | inhibition [18]: inactive | inhibition [19]: Active | inhibition [20]: Active | inhibition [21]: Dose-Dependent Effect | Activity (Mus musculus [22]): Active | inhibition [23]: Active
